Data on one substance can be found in patent publication US11230586B2, “Exosome production method” (TOAGOSEI CO., LTD., priority 2019, dated 2022).

Ends that are not written are not given here.

Test [1] relates to HeLa cells. As to the kind of experiment: Calculation of number of exosomes in exosome fractions from treated HeLa cells (NanoSight LM10). In kind it is cell-based, human. The source says: (§1) More specifically, a currently commercially available human cervical cancer cell line (HeLa cells) was used as the test cultured cells.
(§2) α-MEM medium containing 10% FBS (product of Gibco) was used to culture the HeLa cells. Furthermore, FBS free of native exosomes derived from animal serum was used for the FBS.
(§3) A suitable amount of medium containing FBS at a concentration of 10% was placed in cell culture dishes having a diameter of 100 mm followed by seeding with HeLa cells so that the number of cells per dish was about 2×10^6 cells.
(§4) Next, the cells were cultured in a-MEM medium containing 10% FBS having the sample peptide suspended therein at a concentration of 5 μM under conditions of 5% CO2 at 37° C. for 48 hours.
Subsequently, the culture broth was obtained and subjected to ultracentrifugation to isolate and recover the exosomes. More specifically, centrifugation was carried out continuously as described below under conditions of 4° C. […]
The number of exosomes was calculated for each of the three exosome fractions produced as described above. More specifically, the numbers of exosome particles in the exosome fractions were counted followed by calculating the number of exosomes using NanoSight LM10 (Malvern Panalytical Ltd.).

Test [2] concerns HeLa cells. As to the kind of experiment: Measurement of amount of protein per exosome particle (BCA assay, equation (1)). It counts as cell-based, human.
Description: More specifically, the analyzing step preferably includes, for example, measurement of the total of amount of protein P (μg/mL) contained in the exosome fraction. A conventionally known method (such as BCA assay) can be used without any particular limitations to measure the amount of proteins. As a result, the average amount of protein per exosome, EP (μg), can be calculated based on the following equation (1). […]
as §1, §2, §3, §4
Subsequently, the culture broth was obtained and subjected to ultracentrifugation to isolate and recover the exosomes. […]
The amount of protein was measured for each of the three exosome fractions produced as described above. […]

As to “FIGNLALSDLLAGVAYTANLLLKKRTLRKNDRKKR-CONH2 (FIGNLALSDLLAGVAYTANLLLKKRTLRKNDRKKR-NH2) [Example]”, the Exosome concentration in the test with HeLa cells [1] (HeLa cells cultured 48 hours with 5 μM test substance, exosome fraction by ultracentrifugation, suspended in PBS) is 8.31e+08 mL⁻¹. Moreover, in the test with HeLa cells [1] (HeLa cells, 5 μM, 48 hours, versus Comparative Examples), the “number of exosomes (change, in words)” value was “increase considerably”. Also, the Amount of protein in the test on HeLa cells [2] (HeLa cells cultured 48 hours with 5 μM test substance, total protein by BCA divided by particle number) is 5.9 ×10^−8 μg/exosome. For the same substance, in the test on HeLa cells [2] (HeLa cells, 5 μM, 48 hours, in comparison with Comparative Example 1 and Comparative Example 2), the “amount of proteins in the exosomes (change, in words)” value is “decreased considerably”.
